From PubChem BioAssay (NCI) come the findings set out here.

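Dose response: 5 concentrations. Exposure: 48 h. Format: 96-well plates. Endpoint: linear interpolation; highest concentration if not reached. GI50 is the concentration that inhibits growth by half. At the TGI there is no net growth.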

What all share (assay): growth of human tumour cells (NCI), 48 h
The subject of assay [1] is MOLT-4 leukemia.
Assay [2] concerns HCC-2998 colon.
Assay [3] deals with HOP-92 NSCLC.
Assay [4] has as its system MALME-3M melanoma.
Assay [5] deals with UACC-257 melanoma.
Assay [6] relates to OVCAR-3 ovarian.
Assay [7] relates to HOP-62 NSCLC.
The subject of assay [8] is PC-3 prostate.
Assay [9] concerns MCF7 breast.
Assay [10] relates to BT-549 breast.

`CCC(C(=O)[O-])C(=O)[O-].CCC(C(=O)[O-])C(=O)[O-].N.N.NCCCCCCN.[Pt+4].[Pt+4]`: the GI50 in assay [1] is 1.18 µM; in assay [2], 8.29 µM; in assay [3], 1.24 µM; in assay [4], 1 µM; in assay [5], 6.14 µM; in assay [6] it was 9 µM. Moreover, the GI50 in [7] is 20.4 µM. The TGI came to 2.94 µM in assay [1]; 15.8 µM in assay [2]; 3.87 µM in assay [3]; 1.9 µM in [4]; 14 µM in assay [5]; 16.3 µM in [6]. Moreover, the TGI in assay [7] is 50 µM.

On to `OC(c1ccccn1)C1CNc2ccccc21` (stereo not given), for which the TGI in [1], in [2], in assay [3], in assay [4], in assay [5] and in assay [6] was above 100 µM in each case. The molecule also came in with a TGI in [7] above 100 µM.

For `CCOC(=O)c1cc2c(n1Cc1ccccc1)-c1oncc1CC2`, the GI50 in assay [8] was 9.68 µM; in assay [1], 4.73 µM; in assay [2] it was 7.87 µM; in [3], 5.24 µM; in assay [9] it was above 100 µM; in assay [4], 6.28 µM. In addition, the values for the GI50 in [5], in [6] and in assay [7] were 10.7 µM, 3.06 µM and 5.3 µM, respectively. Further, the TGI is 94.1 µM in assay [8]; 44.6 µM in [1]; 37.1 µM in assay [2]; 42.7 µM in [3]; above 100 µM in assay [9]; 37 µM in [4]. The TGI is 59.7 µM in assay [5], 10.5 µM in [6] and above 100 µM in assay [7].

Regarding `Cc1ccc2[nH]c3c(ncc4[nH]c5ccccc5c43)c2c1`, the TGI was 35.2 µM in assay [1]; 30.2 µM in assay [2]; 33.7 µM in assay [4]; 33.2 µM in assay [5]; above 10 µM in assay [6]; above 10 µM in assay [7].

In the case of `COc1cc(-c2cc(=O)c3cc(C)c(C)c(C(=O)O)c3o2)cc(OC)c1OC`, the TGI in assay [1], in assay [2], in assay [3], in assay [4], in assay [5] and in assay [6] was above 100 µM each time. Also, the TGI in assay [7] is above 100 µM.

For the molecule `COC12CC(=O)C(C(C)=O)=C(O)C1(C)c1c(OC(C)=O)c(C)c(O)c(C(C)=O)c1O2` (stereo not given), the TGI in assay [1] is above 100 µM; in [2], 84 µM; in assay [3] it was 52 µM; in assay [4], 60.2 µM; in assay [5], 91.4 µM; in assay [6], 69.9 µM. In assay [7], this molecule had a TGI of 95.8 µM.

For the molecule `CC1=C(c2cc(C(=O)Nc3cccc(C(F)(F)F)c3)ncn2)Sc2ccccc2N1`, the TGI in assay [1], in [3], in [4], in assay [5], in assay [6] and in assay [7] was above 100 µM throughout.

As to `O=C(CC(=O)C1CCOC1=O)C(=O)Nc1ccc(Cl)cc1Cl` (stereo not given), the TGI in assay [2], in assay [3], in assay [4], in assay [5], in [6] and in assay [7] was above 100 µM each time.

For the molecule `O=C(NNC(=O)c1cc(/C=C/c2cccc([N+](=O)[O-])c2)[nH]c(=S)n1)Nc1ccc(Cl)cc1`, the TGI in [1] was 72 µM; in assay [2], above 100 µM; in [4], above 100 µM; in [5] it was above 100 µM; in [6] it was above 100 µM; in assay [7], above 100 µM.

On to `CC(=O)OCC1O[C@@H]([S-])C(OC(C)=O)[C@H](OC(C)=O)[C@@H]1OC(C)=O.[Au+].c1ccc(CN2[CH-]N(Cc3ccccc3)C(c3ccccc3)=C2c2ccccc2)cc1`, for which the GI50 in [8] was 1.83 µM; in [1] it was 3.06 µM; in [2], 1.96 µM; in assay [3] it was 1.74 µM; in [4], 1.77 µM; in assay [5], 1.84 µM. Moreover, the GI50 in assay [6] is 1.61 µM; in [10], 1.86 µM. For the same molecule, the TGI in assay [8] was determined as 3.7 µM; in assay [1] it was 9.47 µM; in assay [2] it was 3.66 µM; in assay [3], 3.38 µM; in [4], 4.06 µM; in [5] it was 4.05 µM. The results for the TGI in assay [6] and in [10] were 2.99 µM and 3.54 µM, respectively.

In the case of `COc1ccc(C(=O)COc2cccc(/C=C3\CSc4ccc(C)cc4C3=O)c2)cc1`, the GI50 was 5.86 µM in assay [8]; 3.13 µM in assay [1]; 2.64 µM in assay [9]; 41 µM in assay [4]; 49.2 µM in [5]; 15.4 µM in assay [6]. The results for the GI50 in assay [7] and in assay [10] were 24.9 µM and 27.6 µM, respectively. In addition, the TGI was above 100 µM in assay [8]; 10.2 µM in assay [1]; 31.3 µM in [9]; above 100 µM in assay [4]; above 100 µM in assay [5]; 57.6 µM in [6]. The TGI in assay [7] and in [10] was above 100 µM each time.

`CCC[CH2][Sn]([CH2]CCC)([O]C(=O)C1CCC(=O)N1)[O]C(=O)C1CCC(=O)N1` (stereo not given): the GI50 in assay [1] is 0.245 µM; in [2], 0.4 µM; in assay [3] it was 0.141 µM; in assay [4] it was 0.0783 µM; in assay [5], 0.159 µM; in assay [6], 0.218 µM. In assay [7], the GI50 was 0.619 µM. In addition, the TGI in [1] stood at 0.755 µM; in [2], 1.59 µM; in [3], 0.575 µM; in assay [4] it was 0.243 µM; in assay [5] it was 0.338 µM; in [6] it was 0.663 µM. In assay [7], this molecule displayed a TGI of 2.04 µM.

In the case of `Cc1ccc(C)c(NC(=O)CCc2nc(=S)[nH][nH]2)c1`, the TGI in [1], in assay [2], in assay [3], in assay [4], in [5] and in assay [6] was above 100 µM in each case. The same molecule returned a TGI in assay [7] above 100 µM.
